# Paper PMC11535068, “Design, in silico studies and biological evaluation of novel chalcones tethered triazolo[3,4-a]isoquinoline as EGFR inhibitors targeting resistance in non-small cell lung cancer” (Scientific Reports, 2024)
# Legend:
# [1] = tested on: A549 lung cancer cells; test: Annexin V-FITC/PI flow cytometric apoptosis analysis; type: cell-based, human; conditions: A549, 24 h, 3e 2.3 µM, 3f 1.15 µM (IC50)
# Description: (§1) Quantitation of DNA content was evaluated using the Annexin V-FITC Apoptosis Detection kit (BioVision, CA, USA). Dual staining for Annexin-V and PI allows the discrimination between live cells, necrotic cells, and cells in different phases of apoptosis. […] Then, cells were collected and washed with 1X phosphate-buffered saline. The cells were stained in the dark with annexin V-FITC and propidium iodide in a binding buffer and analyzed using the flow cytometer. The cell cycle profiles were analysed using MultiCycle software (Phoenix Flow Systems, San Diego, CA)[60].
# [2] = tested on: A549 lung cancer cells; test: Cell cycle analysis (DNA content, flow cytometry); type: cell-based, human; conditions: A549, 24 h, at IC50
# Description: as §1
# [3] = tested on: Bax; test: RT-qPCR gene expression in A549 cells; type: cell-based, human; conditions: A549, 24 h, vs vehicle cells
# Description: (§2) The real-time polymerase chain reaction (RT-qPCR) technique was used to evaluate the gene expression. A panel of eight genes (P53, BAX, Caspase-3, Caspase-8, Caspase-9, MMP1, CDK4, and Bcl2) was chosen to estimate the compounds’ ability to induce apoptosis. A549 cancer cells were treated with 3e and 3f compounds for 24 h before total RNA extraction. While untreated A549 cancer cells were utilized as a negative control. One-step RT-qPCR was performed using the iScript™ One-Step RT-PCR kit with SYBR®. The primer pairs sequences for each gene used are mentioned in Table 7. Control reactions were formed […] or without the reverse transcriptase enzyme.
# [4] = tested on: Bcl2; test: RT-qPCR gene expression in A549 cells; type: cell-based, human; conditions: A549, 24 h, vs vehicle cells, beta-actin housekeeping gene
# Description: as §2
# [5] = tested on: CDK4; test: RT-qPCR gene expression in A549 cells; type: cell-based, human; conditions: A549, 24 h, vs vehicle cells, beta-actin housekeeping gene
# Description: as §2
# [6] = tested on: Caspase 3; test: RT-qPCR gene expression in A549 cells; type: cell-based, human; conditions: A549, 24 h, vs vehicle cells, beta-actin housekeeping gene
# Description: as §2
# [7] = tested on: Caspase 8; test: RT-qPCR gene expression in A549 cells; type: cell-based, human; conditions: A549, 24 h, vs vehicle cells, beta-actin housekeeping gene
# Description: as §2
# [8] = tested on: Caspase 9; test: RT-qPCR gene expression in A549 cells; type: cell-based, human; conditions: A549, 24 h, vs vehicle cells, beta-actin housekeeping gene
# Description: as §2
# [9] = tested on: MMP1; test: RT-qPCR gene expression in A549 cells; type: cell-based, human; conditions: A549, 24 h, vs vehicle cells, beta-actin housekeeping gene
# Description: as §2
# [10] = tested on: P53; test: RT-qPCR gene expression in A549 cells; type: cell-based, human; conditions: A549, 24 h, vs vehicle cells
# Description: as §2
# [11] = target: T1, total EGFR (Homo sapiens, UniProt P00533); test: EGFR inhibition assay on A549 cells (cloud clone SEA757Hu kit); type: cell-based
# T1 construct: endogenous in cells; host or cells: A549
# Description: (§3) EGFR inhibition assay was performed on A549 cancer cells using cloud clone product SEA757Hu 96 Ki, according to manufacturer’s instructions protocol. The homogeneous time-resolved fluorescence assay method was used to assess the inhibitory activity of 3e and 3f against EGFR^WT, EGFR^T790M and EGFR^L858R. The EGFR proteins (EGFR^WT, EGFR^T790M and EGFR^L858R) were obtained from Signalchem (BC V6V 2J2, Canada). ATP and other chemicals were obtained from Sigma. […] After 30 min, the reaction was stopped by adding detection reagents containing EDTA.
# [12] = target: T2, EGFR^L858R (Homo sapiens, UniProt P00533, L858R); test: Homogeneous time-resolved fluorescence EGFR-TK assay; type: biochemical; conditions: selectivity index
# T2 construct: purchased Signalchem
# Description: as §3
# [13] = target: T3, EGFR^T790M (Homo sapiens, UniProt P00533, T790M); test: as above; type: biochemical; conditions: selectivity index
# T3 construct: purchased Signalchem
# Description: as §3
# [14] = tested on: HCT-116; test: MTT antiproliferative assay; conditions: Homo sapiens, HCT-116, 24 h, read-out: IC50 HCT-116
# Description: (§4) Cell line cells were purchased from the American Type Culture Collection (ATCC, Manassas, VA) and were cultured according to the supplier’s instructions. […] The media was changed every 48 h, and the cells were split when 80–90% confluence was reached. Cell viability was evaluated by MTT assay.
# [15] = tested on: HT-29; test: MTT antiproliferative assay; conditions: Homo sapiens, HT-29, 24 h, read-out: IC50 HT-29
# Description: as §4
# [16] = tested on: A549; test: MTT antiproliferative assay; conditions: Homo sapiens, A549, 24 h, read-out: IC50 A549
# Description: as §4
# [17] = tested on: PC3; test: MTT antiproliferative assay; conditions: Homo sapiens, PC-3, 24 h, read-out: IC50 PC3
# Description: as §4
# [18] = tested on: MCF-7; test: MTT antiproliferative assay; conditions: Homo sapiens, MCF7, 24 h, read-out: IC50 MCF-7
# Description: as §4
# [19] = tested on: WI-38; test: MTT assay on normal lung cell line; conditions: Homo sapiens, WI-38, 24 h, read-out: IC50 WI-38
# Description: as §4
structure (smiles),measurement,setting,value
"COc1cc2c(cc1OC)C1N(CC2)C(C(=O)C=Cc2cn(-c3ccccc3)nc2-c2ccccc2)=NN1c1ccc([N+](=O)[O-])cc1 (stereo not drawn) [Compound 3f, 1-(8,9-Dimethoxy-1-(4-nitrophenyl)-1,5,6,10b-tetrahydro-[1,2,4]triazolo[3,4-a]isoquinolin-3-yl)-3-(1,3-diphenyl-1H-pyrazol-4-yl)prop-2-en-1-one]",Apoptosis Late (%),[1]; vehicle 0.21%,15.24%
same,Apoptosis Early (%),[1]; vehicle 0.49%,3.08%
same,Apoptosis Total (%),[1]; vehicle 0.70%,18.32%
same,Necrosis (%),[1]; vehicle 1.58%,9.89%
same,DNA content Pre-G1%,[2]; vehicle 2.28%,28.21%
same,DNA content G2/M%,[2]; vehicle 8.99%,39.84%
same,DNA content S%,[2]; vehicle 44.26%,26.42%
same,DNA content G0–G1%,[2]; vehicle 46.75%,33.74%
same,Bax gene expression (in words),[3],significantly upregulated
same,Bcl-2 gene expression fold change,[4],0.13 fold
same,CDK4 gene expression fold change,[5],0.29 fold
same,Caspase 3 gene expression fold change,[6],11.26 fold
same,Caspase 8 gene expression fold change,[7],3.48 fold
same,Caspase 9 gene expression fold change,[8],9.32 fold
same,MMP1 gene expression fold change,[9],0.31 fold
same,p53 gene expression (in words),[10],significantly upregulated
same,Fold more efficient in inhibiting EGFR than lapatinib,[11]; total EGFR IC50 ratio to Lapatinib,1.91 fold
same,IC50,"[11]; total EGFR, A549 cells",0.023 µM
same,SI^a = EGFR^WT IC50/ EGFR^L858R IC50,[12],25.95
same,SI^b = EGFR^WT IC50/ EGFR^T790M IC50,[13],4.52
same,melting point,,224 to 226 °C
same,IC50,[14],4.61 ± 0.28 µM
same,IC50,[15],2.41 ± 0.41 µM
same,IC50,[16],1.15 ± 0.38 µM
same,IC50,[17],22.16 ± 0.18 µM
same,IC50,[18],5.53 ± 0.33 µM
same,IC50,[19],1578 ± 0.23 µM
